Source: US12540120B2, “Herbicidal compounds” (SYNGENTA CROP PROTECTION AG, priority 2019, dated 2026)

What was measured:
Type in all cases: in vivo
[1] = test system: Amaranthus retoflexus (AMARE); test: B5 Pre-Emergence Efficacy—Test 2; conditions: 250 g/ha, evaluated after 13 days
Procedure, shortened: (§1)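 Scores are percentage plant damage on a five-point scale (5=80-100%; 4=60-79%; 3=40-59%; 2=20-39%; 1=0-19%), taken 13 days after a pre-emergence spray of 250 g/ha. Sowing preceded spraying by one day; glasshouse at 24/16 °C, 65% humidity.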

[2] = test system: Solanum nigrum (SOLNI); test: B5 Pre-Emergence Efficacy—Test 2; conditions: 250 g/ha, evaluated after 13 days
Procedure, shortened: as §1

[3] = test system: Setaria faberi (SETFA); test: B5 Pre-Emergence Efficacy—Test 2; parameters: key: 5-point scale: 5=80-100%, 4=60-79%, 3=40-59%, 2=20-39%, 1=0-19% damage; conditions: 250 g/ha, evaluated after 13 days
Procedure, shortened: as §1

[4] = test system: Echinochloa crus-galli (ECHCG); test: B5 Pre-Emergence Efficacy—Test 2; parameters: key: 5-point scale: 5=80-100%, 4=60-79%, 3=40-59%, 2=20-39%, 1=0-19% damage; conditions: 250 g/ha, evaluated after 13 days
Procedure, shortened: as §1

[5] = test system: Ipomoea hederacea (IPOHE); test: B5 Pre-Emergence Efficacy—Test 2; parameters: key: 5-point scale: 5=80-100%, 4=60-79%, 3=40-59%, 2=20-39%, 1=0-19% damage; conditions: 250 g/ha, evaluated after 13 days
Procedure, shortened: as §1

[6] = test system: Lolium perenne (LOLPE); test: B5 Pre-Emergence Efficacy—Test 2; parameters: key: 5-point scale: 5=80-100%, 4=60-79%, 3=40-59%, 2=20-39%, 1=0-19% damage; conditions: 250 g/ha, evaluated after 13 days
Procedure, shortened: as §1

[7] = test system: Setaria faberi (SETFA); test: B2 Post-Emergence Efficacy—Test 2; conditions: post-emergence application, 250 g/ha, evaluated after 13 days (Test 2)
Procedure, shortened: (§2)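 Damage rated 13 days after treatment on a 1–5 scale (1=0-19%, 5=80-100%). Compounds were applied at 250 g/ha in acetone/water (50:50) with 0.5% Tween 20 to 8-day-old seedlings, grown under glasshouse conditions of 24/16 °C day/night, 14 h light, 65% humidity.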

[8] = test system: Echinochloa crus-galli (ECHCG); test: B2 Post-Emergence Efficacy—Test 2; conditions: post-emergence application, 250 g/ha, evaluated after 13 days (Test 2)
Procedure, shortened: as §2

[9] = test system: Ipomoea hederacea (IPOHE); test: B2 Post-Emergence Efficacy—Test 2; conditions: post-emergence application, 250 g/ha, evaluated after 13 days (Test 2)
Procedure, shortened: as §2

[10] = test system: Lolium perenne (LOLPE); test: B2 Post-Emergence Efficacy—Test 2; conditions: post-emergence application, 250 g/ha, evaluated after 13 days (Test 2)
Procedure, shortened: as §2

[11] = test system: Amaranthus retoflexus (AMARE); test: B2 Post-Emergence Efficacy—Test 2; conditions: post-emergence application, 250 g/ha, evaluated after 13 days (Test 2)
Procedure, shortened: as §2

[12] = test system: Solanum nigrum (SOLNI); test: B2 Post-Emergence Efficacy—Test 2; conditions: post-emergence application, 250 g/ha, evaluated after 13 days (Test 2)
Procedure, shortened: as §2

| Structure (SMILES) | Control of weed species after pre-emergence application, AMARE (percentage damage, five point scale) [1] | Control of weed species after pre-emergence application, SOLNI (percentage damage, five point scale) [2] | Control of weed species after pre-emergence application, SETFA (percentage damage, five point scale) [3] | Control of weed species after pre-emergence application, ECHCG (percentage damage, five point scale) [4] | Control of weed species after pre-emergence application, IPOHE (percentage damage, five point scale) [5] | Control of weed species after pre-emergence application, LOLPE (percentage damage, five point scale) [6] | percentage damage caused to the plant, five point scale, SETFA [7] | percentage damage caused to the plant, five point scale, ECHCG [8] | percentage damage caused to the plant, five point scale, IPOHE [9] | percentage damage caused to the plant, five point scale, LOLPE [10] | percentage damage caused to the plant, five point scale, AMARE [11] | percentage damage caused to the plant, five point scale, SOLNI [12] |
| --- | --- | --- | --- | --- | --- | --- | --- | --- | --- | --- | --- | --- |
| Cc1nn(C)c(=O)c(-c2c(F)ccc(Cl)c2CCc2cccc(C#N)c2)c1OC(=O)C(C)C [Compound A-3.030] | 5 (5=80-100%) | 5 (5=80-100%) | 5 (5=80-100%) | 4 (4=60-79%) | 3 (3=40-59%) | 4 (4=60-79%) | 5 (5=80-100%) | 2 (2=20-39%) | 5 (5=80-100%) | 4 (4=60-79%) | 5 (5=80-100%) | 5 (5=80-100%) |
| Cc1nn(C)c(=O)c(-c2c(F)ccc(Cl)c2CCc2ccc(OC(C)(C)C)cc2)c1OC(=O)C(C)C [Compound A-3.035] | 4 (4=60-79%) | 5 (5=80-100%) | 5 (5=80-100%) | 4 (4=60-79%) | 5 (5=80-100%) | 5 (5=80-100%) | 5 (5=80-100%) | 4 (4=60-79%) | 5 (5=80-100%) | 5 (5=80-100%) | 5 (5=80-100%) | 5 (5=80-100%) |
| Cc1nn(C)c(=O)c(-c2c(F)ccc(Cl)c2CCc2ccc(C#N)cc2)c1OC(=O)C(C)C [Compound A-3.036, [5-[3-Chloro-2-[2-(4-cyanophenyl)ethyl]-6-fluoro-phenyl]-1,3-dimethyl-6-oxo-pyridazin-4-yl] 2-methylpropanoate] | 5 (5=80-100%) | 5 (5=80-100%) | 5 (5=80-100%) | 5 (5=80-100%) | 5 (5=80-100%) | 5 (5=80-100%) | 4 (4=60-79%) | 4 (4=60-79%) | 5 (5=80-100%) | 4 (4=60-79%) | 5 (5=80-100%) | 5 (5=80-100%) |
| Cc1nn(C)c(=O)c(-c2c(F)ccc(Cl)c2CCc2ccc(C3CC3)cc2)c1OC(=O)C(C)C [Compound A-3.038] | 5 (5=80-100%) | 5 (5=80-100%) | 1 (1=0-19%) | 2 (2=20-39%) | 5 (5=80-100%) | 5 (5=80-100%) | 5 (5=80-100%) | 2 (2=20-39%) | 5 (5=80-100%) | 5 (5=80-100%) | 5 (5=80-100%) | 5 (5=80-100%) |
| Cc1nn(C)c(=O)c(-c2c(F)ccc(Cl)c2/C=C/c2ccccc2C#N)c1OC(=O)C(C)C [Compound A-4.029] | 2 (2=20-39%) | 4 (4=60-79%) | 0 | 0 | 0 | 0 | 0 | 1 (1=0-19%) | 4 (4=60-79%) | 1 (1=0-19%) | 4 (4=60-79%) | 4 (4=60-79%) |
| Cc1nn(C)c(=O)c(-c2c(F)ccc(Cl)c2/C=C/c2cccc(C#N)c2)c1OC(=O)C(C)C [Compound A-4.030] | 3 (3=40-59%) | 4 (4=60-79%) | 1 (1=0-19%) | 1 (1=0-19%) | 1 (1=0-19%) | 2 (2=20-39%) | 0 | 1 (1=0-19%) | 3 (3=40-59%) | 1 (1=0-19%) | 2 (2=20-39%) | 3 (3=40-59%) |
